Legend:
[1] = Hepatocyte stability, human; format: in vitro ADME
Procedure: SUPPLEMENTARY INFORMATION where V (ml/mg protein) is the incubation volume/mg protein added (0.5) and microsomal protein yield is taken as being 52.5 mg protein per g liver. Verapami l (0. 5 µ M ) w as us ed as a pos i t i v e cont rol to confirm ac ceptable assay performance. Ex peri ments were performed us i ng a s i ngl e ti me-cours e […]
4.5 He pat ocy t e s t abilit y
Cryopreserved hepatocytes were used to take non-CYP mediated Phase I and Phase II enzymes into […]
than those determined using li v e r mi crosomes or other subcellular liver fractions and could be mo re predi ct i v e of a met abol i c rat e det ermi ned in vivo.
Cryopreserved mouse (batch MC539) and huma n (batch HU E50H) hepatocytes were supplied by ThermoFi sher Sci enti fi c, Pai sl ey, UK and Xenotech, LLC, respectively. Cryopreserved hepatocytes were rapidly thawed in a pre-heat ed w at er bat h at 37 °C before ad di ng to 50 ml of pre-warmed CHRM medi a (ThermoFi sher Sci enti fi c, Paisley, UK) and mi xed gentl y. […] […] 5 mi l li on v i abl e cel l s /ml i n s uppl emented W ME. Onl y s us pens i ons whi ch ac hi ev ed >80% pos t-thaw viability were us ed i n ex peri ment s . […]
DMSO and 0.25 million cells/ml. […]

Pf(K1) = assay: Drug resistant P. falciparum K1, [3H]-hypoxanthine incorporation; format: cell-based; details: Plasmodium falciparum, chloroquine-resistant
Description: 3.2 Cytotoxicity Studies (Dundee)
In vi t ro cy totox i ci ty s tudies can be ca rri ed out us i ng Hep G 2 (Human C aucas i an hepatocy te ca rci noma, ECACC cat. no. 850 114 30) us ed as i ndi cators f or g eneral mammal i an cel l tox i ci ty . […]
3.3 In vitro Cell Assay D ata Analysis (Du ndee) […]
as 0%. Qual i ty control c ri teri a for passi ng pl ates were as fol l ow s : Z’ > 0.
< 15 . T he f ormula used to calculate Z’ is 1- 3´ (St D e v _ hi gh + St D e v_ low) . […]
Al l EC50 Curve fitti ng was undertaken usi ng XLFi t versi on 4.2 usi ng Model 205 wi th the foll owi ng 4 paramet ri c equat i on: A + (?-A) ,where A=% i nhi bi ti on at bo ttom, B=% i nhi bi ti on at top, C= EC , […]
D= slope, x= inhibitor concentration a nd y= % inhibition. […]
was fixed to 100 only when at least 50% of inhibition was reached. […]
Hoffmann-La Ro che Ltd) a nd resi stant strai ns K1 and TM90C2B (fr om the Malaria Research an d Reference Reag ent Res ou rce C enter, accu rate d es cri pti ons of the g eneti c backg roun ds of thes e strains can be obtained at http://www.beiresources.org) were cultivated in a variation of the medium prev i ous l y des cri bed (5, 6), c onsi sti ng of RPMI 16 40 su ppl emented wi th 0.5% ALBUMAX® II, 25 m M Hepes , 25 mM NaHC O3 (pH 7. […] The re s ul t s were recorded and expressed as a percentage of the untreated controls. […]

O=C(NCC1(O)CCC(F)(F)CC1)c1cc(=O)c2cc(F)ccc2o1 [Compound 5]
Hepatocyte stability CLint [1]: 0.5 (mouse), <0.5 (human) mL⋅min^−1⋅g^−1 | EC50 (Pf(K1)): 510 nM

— article PMC6452685, “Lysyl-tRNA synthetase as a drug target in malaria and cryptosporidiosis” (Proceedings of the National Academy of Sciences of the …, 2019)
